# Assay results published in ChEMBL document CHEMBL5518215, “Unlocking Antibacterial Potential: Key-Site-Based Regulation of Antibacterial Spectrum of Peptides” (J Med Chem, 2024).
# What was measured:
# [1] = system: Staphylococcus epidermidis; assay: Antimicrobial activity against Staphylococcus epidermidis 12228 assessed as bacterial killing measured after 16 hrs incubation; assay type: functional
# Salmonella typhimurium [2] = assay: Antimicrobial activity against Salmonella typhimurium 14028 assessed as bacterial killing measured after 16 hrs incubation; assay type: functional, Salmonella enterica subsp. enterica serovar Typhimurium; details: Salmonella enterica
# Salmonella typhimurium [3] = assay: Antimicrobial activity against Salmonella typhimurium 14028 assessed as absence bacterial growth measured after 18 to 24 hrs incubation by NCCLS method; assay type: functional, Salmonella enterica subsp. enterica serovar Typhimurium; details: Salmonella enterica, time 18-24 hrs
# Escherichia coli [4] = assay: Antimicrobial activity against Escherichia coli K88 assessed as absence bacterial growth measured after 18 to 24 hrs incubation by NCCLS method; assay type: functional; details: time 18-24 hrs
# Staphylococcus aureus [5] = assay: Antimicrobial activity against Methicillin-resistant Staphylococcus aureus 43300 assessed as absence bacterial growth measured after 18 to 24 hrs incubation by NCCLS method; assay type: functional; details: time 18-24 hrs
# Salmonella typhimurium [6] = assay: Antimicrobial activity against Salmonella typhimurium C7731 assessed as bacterial killing measured after 16 hrs incubation; assay type: functional, Salmonella enterica subsp. enterica serovar Typhimurium; details: Salmonella enterica
# [7] = system: Staphylococcus epidermidis; assay: Antimicrobial activity against Staphylococcus epidermidis 12228 assessed as absence bacterial growth measured after 18 to 24 hrs incubation by NCCLS method; assay type: functional; details: time 18-24 hrs
# [8] = Antimicrobial activity against Salmonella pullorum C7913 assessed as bacterial killing measured after 16 hrs incubation; assay type: functional, Salmonella enterica subsp. enterica serovar Pullorum; details: Salmonella enterica
# Enterococcus faecalis [9] = assay: Antimicrobial activity against Enterococcus faecalis 29212 assessed as bacterial killing measured after 16 hrs incubation; assay type: functional
# Escherichia coli [10] = assay: Antimicrobial activity against Escherichia coli 25922 assessed as bacterial killing measured after 16 hrs incubation; assay type: functional
# Staphylococcus aureus [11] = assay: Antimicrobial activity against Staphylococcus aureus 29213 assessed as bacterial killing measured after 16 hrs incubation; assay type: functional
# Acinetobacter baumannii [12] = assay: Antimicrobial activity against Acinetobacter baumannii 1.6769 assessed as absence bacterial growth measured after 18 to 24 hrs incubation by NCCLS method; assay type: functional; details: time 18-24 hrs
# Staphylococcus aureus [13] = assay: Antimicrobial activity against Staphylococcus aureus 29213 assessed as absence bacterial growth measured after 18 to 24 hrs incubation by NCCLS method; assay type: functional; details: time 18-24 hrs
# Staphylococcus aureus [14] = assay: Antimicrobial activity against Methicillin-resistant Staphylococcus aureus 43300 assessed as bacterial killing measured after 16 hrs incubation; assay type: functional
# Staphylococcus aureus [15] = assay: Antimicrobial activity against Staphylococcus aureus 29213 assessed as absence bacterial growth measured after 18 to 24 hrs incubation by NCCLS m; assay type: functional; details: time 18-24 hrs
# Pseudomonas aeruginosa [16] = assay: Antimicrobial activity against Pseudomonas aeruginosa 27853 assessed as bacterial killing measured after 16 hrs incubation; assay type: functional
# Bacillus cereus [17] = assay: Antimicrobial activity against Bacillus cereus 1.932 assessed as bacterial killing measured after 16 hrs incubation; assay type: functional
# Staphylococcus aureus [18] = assay: Antimicrobial activity against Staphylococcus aureus 25923 assessed as bacterial killing measured after 16 hrs incubation; assay type: functional
# Bacillus cereus [19] = assay: Antimicrobial activity against Bacillus cereus 1.932 assessed as absence bacterial growth measured after 18 to 24 hrs incubation by NCCLS method; assay type: functional; details: time 18-24 hrs
# Escherichia coli [20] = assay: Antimicrobial activity against Escherichia coli 25922 assessed as absence bacterial growth measured after 18 to 24 hrs incubation by NCCLS method; assay type: functional; details: time 18-24 hrs
# Salmonella typhimurium [21] = assay: Antimicrobial activity against Salmonella typhimurium C7731 assessed as absence bacterial growth measured after 18 to 24 hrs incubation by NCCLS method; assay type: functional, Salmonella enterica subsp. enterica serovar Typhimurium; details: Salmonella enterica, time 18-24 hrs
# Escherichia coli [22] = assay: Antimicrobial activity against Escherichia coli K88 assessed as bacterial killing measured after 16 hrs incubation; assay type: functional
# Listeria monocytogenes [23] = assay: Antimicrobial activity against Listeria monocytogenes 1.10753 assessed as absence bacterial growth measured after 18 to 24 hrs incubation by NCCLS method; assay type: functional; details: time 18-24 hrs
# Listeria monocytogenes [24] = assay: Antimicrobial activity against Listeria monocytogenes 1.10753 assessed as bacterial killing measured after 16 hrs incubation; assay type: functional
# [25] = Antimicrobial activity against Salmonella pullorum C7913 assessed as absence bacterial growth measured after 18 to 24 hrs incubation by NCCLS method; assay type: functional, Salmonella enterica subsp. enterica serovar Pullorum; details: Salmonella enterica, time 18-24 hrs
# Acinetobacter baumannii [26] = assay: Antimicrobial activity against Acinetobacter baumannii 1.6769 assessed as bacterial killing measured after 16 hrs incubation; assay type: functional
# Enterococcus faecalis [27] = assay: Antimicrobial activity against Enterococcus faecalis 29212 assessed as absence bacterial growth measured after 18 to 24 hrs incubation by NCCLS method; assay type: functional; details: time 18-24 hrs
# Pseudomonas aeruginosa [28] = assay: Antimicrobial activity against Pseudomonas aeruginosa 27853 assessed as absence bacterial growth measured after 18 to 24 hrs incubation by NCCLS method; assay type: functional; details: time 18-24 hrs
# Escherichia coli [29] = assay: Antimicrobial activity against Escherichia coli 25922 assessed as absence bacterial growth measured after 18 to 24 hrs incubation in presence of MgCl2 by NCCLS method; assay type: functional; details: time 18-24 hrs
# Escherichia coli [30] = assay: Antimicrobial activity against Escherichia coli 25922 assessed as absence bacterial growth measured after 18 to 24 hrs incubation in presence of ZnCl2 by NCCLS method; assay type: functional; details: time 18-24 hrs
# Escherichia coli [31] = assay: Antimicrobial activity against Escherichia coli 25922 assessed as absence bacterial growth measured after 18 to 24 hrs incubation in presence of NaCl by NCCLS method; assay type: functional; details: time 18-24 hrs
# Erythrocyte = assay: Hemolytic activity in human RBC at effective concentration measured after 1 hr by microplate reader analysis; assay type: toxicity, cell-based
# [32] = Cytotoxicity against porcine IPEC-J2 cells assessed as cell survival rate measured after 8 hrs by MTT assay; assay type: toxicity, cell-based, Sus scrofa; details: pig
# Escherichia coli [33] = assay: Antimicrobial activity against Escherichia coli 25922 assessed as absence bacterial growth measured after 18 to 24 hrs incubation in presence of 12.5% serum by NCCLS method; assay type: functional; details: time 18-24 hrs
# Escherichia coli [34] = assay: Antimicrobial activity against Escherichia coli 25922 assessed as absence bacterial growth measured after 18 to 24 hrs incubation in presence of 50% serum by NCCLS method; assay type: functional; details: time 18-24 hrs
# [35] = Cytotoxicity against human HEK-293T cells assessed as cell survival rate measured after 8 hrs by MTT assay; assay type: toxicity, cell-based
# Escherichia coli [36] = assay: Antimicrobial activity against Escherichia coli 25922 assessed as absence bacterial growth measured after 18 to 24 hrs incubation in presence of 25% serum by NCCLS method; assay type: functional; details: time 18-24 hrs
# Escherichia coli [37] = assay: Antimicrobial activity against Escherichia coli 25922 assessed as absence bacterial growth measured after 18 to 24 hrs incubation in presence of KCl by NCCLS method; assay type: functional; details: time 18-24 hrs
# [38] = Cytotoxicity against mouse RAW264.7 cells assessed as cell survival rate measured after 8 hrs by MTT assay; assay type: toxicity, cell-based
# Escherichia coli [39] = assay: Antimicrobial activity against Escherichia coli 25922 assessed as absence bacterial growth measured after 18 to 24 hrs incubation in presence of NH4Cl by NCCLS method; assay type: functional; details: time 18-24 hrs
# Escherichia coli [40] = assay: Antimicrobial activity against Escherichia coli 25922 assessed as absence bacterial growth measured after 18 to 24 hrs incubation in presence of FeCl3 by NCCLS method; assay type: functional; details: time 18-24 hrs
substance,measurement,setting,value
H-AKLWLKAAKLWLKAAKLWLKA-NH2,MBC,[1],4 µM
same,MBC,Salmonella typhimurium [2],2 µM
same,MIC,Salmonella typhimurium [3],1 µM
same,MIC,Escherichia coli [4],0.5 µM
same,MIC,Staphylococcus aureus [5],2 µM
same,MBC,Salmonella typhimurium [6],0.5 µM
same,MIC,[7],2 µM
same,MBC,[8],8 µM
same,MBC,Enterococcus faecalis [9],4 µM
same,MBC,Escherichia coli [10],1 µM
same,MBC,Staphylococcus aureus [11],2 µM
same,MIC,Acinetobacter baumannii [12],1 µM
same,MIC,Staphylococcus aureus [13],2 µM
same,MBC,Staphylococcus aureus [14],4 µM
same,MIC,Staphylococcus aureus [15],2 µM
same,MBC,Pseudomonas aeruginosa [16],4 µM
same,MBC,Bacillus cereus [17],2 µM
same,MBC,Staphylococcus aureus [18],4 µM
same,MIC,Bacillus cereus [19],2 µM
same,MIC,Escherichia coli [20],1 µM
same,MIC,Salmonella typhimurium [21],0.5 µM
same,MBC,Escherichia coli [22],0.5 µM
same,MIC,Listeria monocytogenes [23],16 µM
same,MBC,Listeria monocytogenes [24],32 µM
same,MIC,[25],2 µM
same,MBC,Acinetobacter baumannii [26],1 µM
same,MIC,Enterococcus faecalis [27],4 µM
same,MIC,Pseudomonas aeruginosa [28],2 µM
H-GKLWLKGCKLWLKGGKLWLKG-NH2,MBC,[1],> 32 µM
same,MBC,Salmonella typhimurium [2],16 µM
same,MIC,Escherichia coli [29],> 32 µM
same,MIC,Salmonella typhimurium [3],8 µM
same,MIC,Escherichia coli [4],2 µM
same,MIC,Escherichia coli [30],8 µM
same,MIC,Escherichia coli [31],> 32 µM
same,MIC,Staphylococcus aureus [5],32 µM
same,MBC,Salmonella typhimurium [6],32 µM
same,HC10,Erythrocyte,> 128 µM
same,MIC,[7],> 32 µM
same,MBC,[8],4 µM
same,MBC,Enterococcus faecalis [9],> 32 µM
same,IC50 at 8 h,[32],> 64 µM
same,MBC,Escherichia coli [10],8 µM
same,MIC,Escherichia coli [33],> 32 µM
same,MIC,Escherichia coli [34],> 32 µM
same,MBC,Staphylococcus aureus [11],> 32 µM
same,IC50 at 8 h,[35],> 64 µM
same,MIC,Escherichia coli [36],> 32 µM
same,MIC,Acinetobacter baumannii [12],8 µM
same,MIC,Staphylococcus aureus [13],> 32 µM
same,MBC,Staphylococcus aureus [14],32 µM
same,MIC,Staphylococcus aureus [15],> 32 µM
same,MBC,Pseudomonas aeruginosa [16],32 µM
same,MBC,Bacillus cereus [17],4 µM
same,MBC,Staphylococcus aureus [18],> 32 µM
same,MIC,Bacillus cereus [19],4 µM
same,MIC,Escherichia coli [20],8 µM
same,MIC,Escherichia coli [37],8 µM
same,MIC,Salmonella typhimurium [21],8 µM
same,IC50 at 8 h,[38],> 64 µM
same,MBC,Escherichia coli [22],2 µM
same,MIC,Escherichia coli [39],8 µM
same,MIC,Escherichia coli [40],8 µM
same,MIC,Listeria monocytogenes [23],> 32 µM
same,MBC,Listeria monocytogenes [24],> 32 µM
same,MIC,[25],2 µM
same,MBC,Acinetobacter baumannii [26],16 µM
same,MIC,Enterococcus faecalis [27],> 32 µM
same,MIC,Pseudomonas aeruginosa [28],32 µM
H-GKLWLKGFKLWLKGGKLWLKG-NH2,MBC,[1],4 µM
same,MBC,Salmonella typhimurium [2],8 µM
same,MIC,Escherichia coli [29],4 µM
same,MIC,Salmonella typhimurium [3],2 µM
same,MIC,Escherichia coli [4],1 µM
same,MIC,Escherichia coli [30],2 µM
same,MIC,Escherichia coli [31],4 µM
same,MIC,Staphylococcus aureus [5],2 µM
same,MBC,Salmonella typhimurium [6],32 µM
same,HC10,Erythrocyte,128 µM
same,MIC,[7],4 µM
same,MBC,[8],2 µM
same,MBC,Enterococcus faecalis [9],4 µM
same,IC50 at 8 h,[32],35.7 µM
same,MBC,Escherichia coli [10],2 µM
same,MIC,Escherichia coli [33],16 µM
same,MIC,Escherichia coli [34],> 32 µM
same,MBC,Staphylococcus aureus [11],4 µM
same,IC50 at 8 h,[35],36.6 µM
same,MIC,Escherichia coli [36],> 32 µM
same,MIC,Acinetobacter baumannii [12],2 µM
same,MIC,Staphylococcus aureus [13],4 µM
same,MBC,Staphylococcus aureus [14],8 µM
same,MIC,Staphylococcus aureus [15],4 µM
same,MBC,Pseudomonas aeruginosa [16],16 µM
same,MBC,Bacillus cereus [17],2 µM
same,MBC,Staphylococcus aureus [18],4 µM
same,MIC,Bacillus cereus [19],2 µM
same,MIC,Escherichia coli [20],2 µM
same,MIC,Escherichia coli [37],4 µM
same,MIC,Salmonella typhimurium [21],8 µM
same,IC50 at 8 h,[38],31 µM
same,MBC,Escherichia coli [22],1 µM
same,MIC,Escherichia coli [39],2 µM
same,MIC,Escherichia coli [40],2 µM
same,MIC,Listeria monocytogenes [23],> 32 µM
same,MBC,Listeria monocytogenes [24],> 32 µM
same,MIC,[25],0.5 µM
same,MBC,Acinetobacter baumannii [26],2 µM
same,MIC,Enterococcus faecalis [27],2 µM
same,MIC,Pseudomonas aeruginosa [28],4 µM
